Here are results for 72 molecules from patent EP1247803A2, “Indolinone compounds suitable for modulation of protein kinases” (Sugen, Inc., priority 1996, dated 1998).

In the experiment the target is T1, EGFR (Homo sapiens, UniProt P00533).
T1 construct: Add 7 ug A431 cell lysate per well (EGFR source); endogenous in cells; host or cells: A431
T1 sequence (P00533 25-1210): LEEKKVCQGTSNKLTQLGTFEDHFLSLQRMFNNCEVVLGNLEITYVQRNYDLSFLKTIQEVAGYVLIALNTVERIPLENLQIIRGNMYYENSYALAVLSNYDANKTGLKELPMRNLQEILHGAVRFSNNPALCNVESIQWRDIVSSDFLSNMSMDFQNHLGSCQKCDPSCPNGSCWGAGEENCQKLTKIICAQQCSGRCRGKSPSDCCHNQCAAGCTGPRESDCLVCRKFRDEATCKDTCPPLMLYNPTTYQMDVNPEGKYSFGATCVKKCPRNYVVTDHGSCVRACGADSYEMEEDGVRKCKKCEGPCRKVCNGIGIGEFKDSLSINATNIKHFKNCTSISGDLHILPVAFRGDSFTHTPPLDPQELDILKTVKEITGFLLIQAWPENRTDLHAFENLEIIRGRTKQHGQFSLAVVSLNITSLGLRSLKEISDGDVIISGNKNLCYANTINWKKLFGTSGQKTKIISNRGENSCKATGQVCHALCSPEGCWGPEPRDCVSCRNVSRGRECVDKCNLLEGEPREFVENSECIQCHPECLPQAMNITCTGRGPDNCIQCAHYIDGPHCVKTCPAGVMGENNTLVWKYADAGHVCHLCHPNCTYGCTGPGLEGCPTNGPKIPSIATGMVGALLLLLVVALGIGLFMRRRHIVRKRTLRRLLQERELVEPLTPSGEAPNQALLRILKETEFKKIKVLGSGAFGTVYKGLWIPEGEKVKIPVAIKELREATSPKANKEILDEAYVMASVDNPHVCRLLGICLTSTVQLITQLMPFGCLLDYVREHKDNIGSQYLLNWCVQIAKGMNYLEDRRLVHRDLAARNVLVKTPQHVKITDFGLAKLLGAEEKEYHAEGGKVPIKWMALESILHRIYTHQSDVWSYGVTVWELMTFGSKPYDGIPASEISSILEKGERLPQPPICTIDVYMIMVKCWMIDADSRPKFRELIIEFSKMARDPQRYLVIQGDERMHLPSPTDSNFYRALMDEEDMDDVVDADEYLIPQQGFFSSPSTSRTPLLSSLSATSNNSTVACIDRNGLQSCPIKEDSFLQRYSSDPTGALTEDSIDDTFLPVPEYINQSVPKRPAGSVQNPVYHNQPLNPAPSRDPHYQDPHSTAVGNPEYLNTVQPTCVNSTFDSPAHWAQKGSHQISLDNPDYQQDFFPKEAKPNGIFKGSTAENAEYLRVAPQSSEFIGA
Kind of experiment: EGFR ELISA assay (in vitro kinase activity, EGFR captured from A431 cell lysate). It is filed as biochemical. On the set-up: concentration or dose not given beside the values. Summed up: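 EGFR from A431 lysate was captured on anti-EGFR antibody-coated plates and preincubated with compounds for 30 min. Autophosphorylation ran 5 min with 3 uM ATP and 5 mM MnCl2 (final), stopped with 20 mM EDTA. Phosphotyrosine was detected by anti-pTyr ELISA with ABTS/H2O2, read at 410 nm.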
A general note: In an ELISA, binding on a coated surface is turned into a signal by an enzyme label.
Regarding `COc1ccc(C=C2C(=O)Nc3ccc(CCCl)cc32)cc1` [10726/G11], the “Biochem EGFR %Inhibition” value was 1.3%.

Take `O=C1Nc2ccc(CCCl)cc2C1=Cc1c[nH]c2ccccc12` [10717/G06]: the “Biochem EGFR %Inhibition” value is listed as -3.4%.

Turning to `CCOC(=O)c1[nH]c(C=C2C(=O)Nc3ccc(CCCl)cc32)c(C(=O)OC)c1C` [10726/G03], the “Biochem EGFR %Inhibition” value is given as -17.2%.

For `O=C1Nc2ccc(S(=O)(=O)Nc3ccc(C(F)(F)F)cc3)cc2C1=Cc1ccc(Br)o1` [10726/E05], the “Biochem EGFR %Inhibition” value was found to be 5.5%.

Regarding `O=C1Nc2c(Br)cc(Br)cc2C1=Cc1c[nH]c2ccccc12` [10717/A06], the “Biochem EGFR %Inhibition” value was -7.8%.

Turning to `Cc1cc(C=C2C(=O)Nc3ccc(S(=O)(=O)N4CCOCC4)cc32)cc(C(C)(C)C)c1O` [10726/F04], the “Biochem EGFR %Inhibition” value is 33.4%.

In the case of `COc1cccc(O)c1C=C1C(=O)Nc2ccc(CCCl)cc21` [10717/G10], the “Biochem EGFR %Inhibition” value was 2.4%.

On to `COc1cccc(C=C2C(=O)Nc3ccc(Br)c(C)c32)c1OC` [10727/C11], for which the “Biochem EGFR %Inhibition” value was -15.6%.

For `Cc1cn(C)cc1C=C1C(=O)Nc2ccc(S(=O)(=O)Nc3ccc(C(F)(F)F)cc3)cc21` [10726/E06], the “Biochem EGFR %Inhibition” value is -20.6%.

As to `CNS(=O)(=O)c1ccc2c(c1)C(=Cc1ccc(OC)cc1)C(=O)N2` [10726/D11], the “Biochem EGFR %Inhibition” value is -6.3%.

For the molecule `O=C1Nc2ccc(I)cc2C1=Cc1coc2ccccc2c1=O` [10727/B07], the “Biochem EGFR %Inhibition” value was found to be 46.5%.

For the molecule `O=C1Nc2ccccc2C1=C1C(=O)Nc2ccc(S(=O)(=O)Nc3ccc(C(F)(F)F)cc3)cc21` [10726/E09], the “Biochem EGFR %Inhibition” value stood at 10.0%.

`O=C1Nc2ccc(F)cc2C1=C1C(=O)Nc2ccc(S(=O)(=O)Nc3ccc(C(F)(F)F)cc3)cc21` [10726/E08]: the “Biochem EGFR %Inhibition” value is given as -8.5%.

With `Cc1cc(C=C2C(=O)Nc3ccc(S(=O)(=O)Nc4ccc(C(F)(F)F)cc4)cc32)cc(C(C)(C)C)c1O` [10726/E04], the “Biochem EGFR %Inhibition” value was 53.0%.

Turning to `CCN(CC)c1ccc(C=C2C(=O)Nc3ccc(I)cc32)cc1` [10727/B02], the “Biochem EGFR %Inhibition” value is -18.4%.

As for `CNS(=O)(=O)c1ccc2c(c1)C(=Cc1cn(C)cc1C)C(=O)N2` [10726/D06], the “Biochem EGFR %Inhibition” value is on record as -24.4%.

As for `N#Cc1ccc(C=C2C(=O)Nc3c(Br)cc(Br)cc32)cc1` [10727/A09], the “Biochem EGFR %Inhibition” value turned out to be 12.7%.

Take `Cc1ccc(C=C2C(=O)Nc3ccc(CCCl)cc32)s1` [10717/G07]: the “Biochem EGFR %Inhibition” value is reported as 13.1%.

`Cc1c(Br)ccc2c1C(=Cc1ccc(C#N)cc1)C(=O)N2` [10727/C09]: the “Biochem EGFR %Inhibition” value is 16.6%.

In the case of `Cc1c(Br)ccc2c1C(=Cc1cc(Cl)cc(Br)c1O)C(=O)N2` [10727/C04], the “Biochem EGFR %Inhibition” value worked out at 27.6%.

For the molecule `O=C1Nc2ccc(I)cc2C1=Cc1ccccc1Sc1ccc(Cl)cc1` [10727/B05], the “Biochem EGFR %Inhibition” value turned out to be 39.0%.

On to `O=C1Nc2ccc(I)cc2C1=Cc1cc(Cl)cc(Br)c1O` [10727/B04], for which the “Biochem EGFR %Inhibition” value was 47.4%.

`Cc1cn(C)cc1C=C1C(=O)Nc2ccc(S(=O)(=O)N3CCOCC3)cc21` [10726/F06]: the “Biochem EGFR %Inhibition” value is given as -24.1%.

`N#Cc1ccc(C=C2C(=O)Nc3ccc(I)cc32)cc1` [10727/B09]: the “Biochem EGFR %Inhibition” value is reported as 31.7%.

For the molecule `O=C1Nc2c(Br)cc(Br)cc2C1=Cc1coc2ccccc2c1=O` [10727/A07], the “Biochem EGFR %Inhibition” value is -3.7%.

As to `CCc1cc(CC)c(C=C2C(=O)Nc3ccc(I)cc32)[nH]1` [10727/B03], the “Biochem EGFR %Inhibition” value is given as -2.8%.

As for `CCc1ccc(C=C2C(=O)Nc3ccc(Br)c(C)c32)s1` [10726/C10], the “Biochem EGFR %Inhibition” value stood at 2.8%.

Turning to `CCOC(=O)c1[nH]c(C=C2C(=O)Nc3ccc(S(=O)(=O)NC)cc32)c(C(=O)OC)c1C` [10726/D03], the “Biochem EGFR %Inhibition” value is -5.4%.

With `O=C1Nc2ccc(F)cc2C1=C1C(=O)Nc2ccc(CCCl)cc21` [10726/G08], the “Biochem EGFR %Inhibition” value is on record as -2.7%.

For the molecule `CCOC(=O)c1[nH]c(C=C2C(=O)Nc3ccc(S(=O)(=O)Nc4ccc(C(F)(F)F)cc4)cc32)c(C(=O)OC)c1C` [10726/E03], the “Biochem EGFR %Inhibition” value was -15.9%.

Consider `CCN(CC)c1ccc(C=C2C(=O)Nc3ccc(Br)c(C)c32)cc1` [10727/C02], for which the “Biochem EGFR %Inhibition” value is given as -28.5%.

For the molecule `CNS(=O)(=O)c1ccc2c(c1)C(=C1C(=O)Nc3ccccc31)C(=O)N2` [10726/D09], the “Biochem EGFR %Inhibition” value is given as -6.5%.

Turning to `COc1cccc(C=C2C(=O)Nc3c(Br)cc(Br)cc32)c1OC` [10727/A11], the “Biochem EGFR %Inhibition” value is listed as 6.2%.

For the molecule `O=C1Nc2ccccc2C1=C1C(=O)Nc2ccc(S(=O)(=O)N3CCOCC3)cc21` [10726/F09], the “Biochem EGFR %Inhibition” value is listed as -22.8%.

In the case of `O=C1Nc2ccc(CCCl)cc2C1=Cc1ccc(Br)o1` [10726/G05], the “Biochem EGFR %Inhibition” value was 5.1%.

As for `CNS(=O)(=O)c1ccc2c(c1)C(=Cc1cc(C)c(O)c(C(C)(C)C)c1)C(=O)N2` [10726/D04], the “Biochem EGFR %Inhibition” value is on record as -20.1%.

Take `CCc1cc(CC)c(C=C2C(=O)Nc3ccc(S(=O)(=O)NC)cc32)[nH]1` [10727/D03]: the “Biochem EGFR %Inhibition” value is on record as 39.4%.

As for `Cc1cc(C=C2C(=O)Nc3ccc(CCCl)cc32)cc(C(C)(C)C)c1O` [10726/G04], the “Biochem EGFR %Inhibition” value came to 60.6%.

Regarding `CCc1cc(CC)c(C=C2C(=O)Nc3c(Br)cc(Br)cc32)[nH]1` [10727/A03], the “Biochem EGFR %Inhibition” value was -19.2%.

For the molecule `CNS(=O)(=O)c1ccc2c(c1)C(=Cc1ccc(Br)o1)C(=O)N2` [10726/D05], the “Biochem EGFR %Inhibition” value is -8.1%.

As for `O=C1Nc2ccccc2C1=C1C(=O)Nc2ccc(CCCl)cc21` [10726/G09], the “Biochem EGFR %Inhibition” value amounted to 3.3%.

As for `O=C1Nc2ccc(I)cc2C1=Cc1cc2c(cc1Cl)OCO2` [10727/B06], the “Biochem EGFR %Inhibition” value amounted to 40.7%.

Take `O=C1Nc2ccc(CCCl)cc2C1=Cc1ccc[nH]1` [10717/G09]: the “Biochem EGFR %Inhibition” value was found to be 24.9%.

As for `CCc1ccc(C=C2C(=O)Nc3ccc(CCCl)cc32)s1` [10726/G10], the “Biochem EGFR %Inhibition” value is 6.0%.

As to `O=C1Nc2ccc(S(=O)(=O)N3CCOCC3)cc2C1=Cc1ccc(Br)o1` [10726/F05], the “Biochem EGFR %Inhibition” value is reported as -26.8%.

As for `CCN(CC)c1ccc(C=C2C(=O)Nc3c(Br)cc(Br)cc32)cc1` [10727/A02], the “Biochem EGFR %Inhibition” value was 3.2%.

In the case of `O=C1Nc2c(Br)cc(Br)cc2C1=Cc1cc2c(cc1Cl)OCO2` [10727/A06], the “Biochem EGFR %Inhibition” value is -6.3%.

Take `COc1cccc(C=C2C(=O)Nc3ccc(I)cc32)c1OC` [10727/B11]: the “Biochem EGFR %Inhibition” value was 6.9%.

On to `N#Cc1cccc(C=C2C(=O)Nc3c(Br)cc(Br)cc32)c1` [10727/A08], for which the “Biochem EGFR %Inhibition” value turned out to be 9.7%.

Take `O=C1Nc2c(Br)cc(Br)cc2C1=Cc1cc(Cl)cc(Br)c1O` [10727/A04]: the “Biochem EGFR %Inhibition” value is listed as 28.2%.

`CCc1ccc(C=C2C(=O)Nc3ccc(S(=O)(=O)NC)cc32)s1` [10726/D10]: the “Biochem EGFR %Inhibition” value was -6.5%.

With `CNS(=O)(=O)c1ccc2c(c1)C(=Cc1cc(O)c3c(c1O)CCCC3)C(=O)N2` [10726/D07], the “Biochem EGFR %Inhibition” value came out at 18.5%.

As to `CCOC(=O)c1[nH]c(C=C2C(=O)Nc3ccc(S(=O)(=O)N4CCOCC4)cc32)c(C(=O)OC)c1C` [10726/F03], the “Biochem EGFR %Inhibition” value was -17.4%.

As for `O=C1Nc2ccc(S(=O)(=O)N3CCOCC3)cc2C1=Cc1cc(O)c2c(c1O)CCCC2` [10726/F07], the “Biochem EGFR %Inhibition” value was determined as 76.2%.

Regarding `O=C1Nc2c(Br)cc(Br)cc2C1=Cc1ccccc1Sc1ccc(Cl)cc1` [10727/A05], the “Biochem EGFR %Inhibition” value is given as -3.0%.

For `CCc1cc(CC)c(C=C2C(=O)Nc3ccc(Br)c(C)c32)[nH]1` [10727/C03], the “Biochem EGFR %Inhibition” value amounted to 14.6%.

Take `N#Cc1cccc(C=C2C(=O)Nc3ccc(I)cc32)c1` [10727/B08]: the “Biochem EGFR %Inhibition” value was 47.4%.

In the case of `Cn1cccc1C=C1C(=O)Nc2ccc(CCCl)cc21` [10717/G04], the “Biochem EGFR %Inhibition” value worked out at 6.0%.

Take `O=C1Nc2c(Br)cc(Br)cc2C1=Cc1cc(O)ccc1O` [10727/A10]: the “Biochem EGFR %Inhibition” value was 89.0%.

Regarding `O=C1Nc2ccc(F)cc2C1=C1C(=O)Nc2ccc(S(=O)(=O)N3CCOCC3)cc21` [10726/F08], the “Biochem EGFR %Inhibition” value is recorded as -21.5%.

As for `Cc1c(Br)ccc2c1C(=Cc1cc(O)ccc1O)C(=O)N2` [10727/C10], the “Biochem EGFR %Inhibition” value is reported as 85.3%.

In the case of `O=C1Nc2ccc(I)cc2C1=Cc1cc(O)ccc1O` [10727/B10], the “Biochem EGFR %Inhibition” value is reported as 94.0%.

As to `COc1ccc(C=C2C(=O)Nc3ccc(S(=O)(=O)Nc4ccc(C(F)(F)F)cc4)cc32)cc1` [10726/E11], the “Biochem EGFR %Inhibition” value is -14.1%.

For `CNS(=O)(=O)c1ccc2c(c1)C(=C1C(=O)Nc3ccc(F)cc31)C(=O)N2` [10726/D08], the “Biochem EGFR %Inhibition” value was -11.4%.

`Cc1cn(C)cc1C=C1C(=O)Nc2ccc(CCCl)cc21` [10726/G06]: the “Biochem EGFR %Inhibition” value is -37.5%.

Consider `Cc1c(Br)ccc2c1C(=C1C(=O)Nc3ccc(F)cc31)C(=O)N2` [10726/C08], for which the “Biochem EGFR %Inhibition” value came to 7.5%.

For `Cc1c(Br)ccc2c1C(=Cc1ccccc1Sc1ccc(Cl)cc1)C(=O)N2` [10727/C05], the “Biochem EGFR %Inhibition” value is given as 11.8%.

As for `Cc1c(Br)ccc2c1C(=Cc1coc3ccccc3c1=O)C(=O)N2` [10727/C07], the “Biochem EGFR %Inhibition” value was 8.4%.

On to `CCc1ccc(C=C2C(=O)Nc3ccc(S(=O)(=O)Nc4ccc(C(F)(F)F)cc4)cc32)s1` [10726/E10], for which the “Biochem EGFR %Inhibition” value is recorded as -9.0%.

Take `Cc1c(Br)ccc2c1C(=Cc1cc3c(cc1Cl)OCO3)C(=O)N2` [10727/C06]: the “Biochem EGFR %Inhibition” value stood at 5.6%.

With `CCc1ccc(C=C2C(=O)Nc3ccc(S(=O)(=O)N4CCOCC4)cc32)s1` [10726/F10], the “Biochem EGFR %Inhibition” value is listed as -17.4%.

Turning to `O=C1Nc2ccc(CCCl)cc2C1=Cc1cc(O)c2c(c1O)CCCC2` [10726/G07], the “Biochem EGFR %Inhibition” value is recorded as 54.4%.
